The values that follow come from patent US10213476B2, “Compstatin analogs with improved potency and pharmacokinetic properties” (The Trustees of the University of Pennsylvania, priority 2014, dated 2019).

Molecules are shown by their SMILES. Like-named read-outs stand apart in the source and are kept apart here.

For data set [1], the system named is complement activation initiated via the classical pathway. Description: ELISA of immune complex-induced complement activation (classical pathway) in human plasma. It counts as biochemical.
Description: Each peptide was dissolved in water, and its concentration was determined by Nanodrop using the absorbance at 280 nm. […] The percent inhibition was plotted against the peptide concentration, and the resulting data set was fitted to the logistic dose-response function to obtain IC50 values (FIG. 4).
Data set [2] has as its target baboon albumin. Put plainly: SPR of albumin binding to immobilized ABM2-Cp20 (baboon albumin). The note with it: baboon albumin 6.3-100 μM over immobilized biotinylated ABM2-Cp20; read-out: Apparent binding affinity.
Description: Streptavidin was immobilized on all flow cells of CM5 sensor chips (GE Healthcare) using standard amine coupling under 30° C. […] Sets of five increasing concentrations (6.3-100 μM) of albumin from different species (human, mouse, bovine, rabbit and baboon) were injected over the chip surface (FIG. 2). Data were recorded at 25° C. using PBS-T (10 mM sodium phosphate, 150 mM NaCl, 0.005% Tween-20, pH 7.4) as running buffer. Data were processed in Scrubber (v2.0c; Bio-Logic Software, Campbell, Australia); the signals from an untreated flow cell and buffer blank injections were subtracted. Apparent binding affinities (KD app) were calculated by fitting the steady state responses to a single-binding-site model.
For data set [3], the target named is human serum albumin (HSA) (Homo sapiens, UniProt P02768). Description: SPR competition between immobilized ABM2-Cp20 and soluble ibuprofen for HSA. The conditions noted are these: concluded from ibuprofen (site II ligand) competition. It counts as binding.
Description: Data were recorded at 25° C. using PBS-T (10 mM sodium phosphate, 150 mM NaCl, 0.005% Tween-20, pH 7.4) as running buffer, and untreated flow cells were used as a reference surface.
Data set [4] is described as follows: Plasma protein binding by rapid equilibrium dialysis (RED). It counts as in vitro ADME. The note with it: human, 37° C.; for fraction unbound at 24 h, 5 μM: peptide 5 μM; for fraction unbound at 24 h, 10 μM: peptide 10 μM. The protocol:
A rapid equilibrium dialysis (RED) device with inserts (MWCO 8 K) was used (Thermo Scientific). C3-depleted serum (product no. A314) was purchased from Complement Technology, Tyler, Tex. Purified C3 (Complement Technology, A113c) was added to C3-depleted serum at a defined, physiologically relevant concentration (5 μM) to maintain the sample matrix and inhibitor-target ratio in comparative experiments (referred to as C3-positive serum).
Equilibrium dialysis using RED device was performed to determine the plasma protein binding. The inserts were soaked in water for 10 min before discarding the water (twice), and then used immediately (Waters et al., 2008, J. Pharm. Sci. 97, 4586). A mixture of 90 μL C3-depleted or C3-positive serum and 10 μL compstatin sample (5 or 10 μM) in PBS buffer (10% DMSO, 0.5% Tween 20, 0.2% sodium azide) was placed in the plasma chamber, and 300 μL PBS buffer (1% DMSO and 0.05% Tween 20) was placed in the buffer chamber. The final DMSO concentration of the dialysis system was 1%. The plate was covered with a sealing tape and incubated at 37° C. on an orbital shaker (200 rpm) for 24 h. Each sample was analyzed at least twice.
A 50-μL aliquot of each post-dialysis sample from both the plasma and buffer chambers was pipetted into separate LoBind tubes (Eppendorf). The samples from plasma chambers were diluted with 50 μL PBS, while samples from buffer chambers were diluted with C3-depleted, or C3 positive serum (matrix match). All samples were diluted to 100 μL using 4% H3PO4 to dissociate the peptides. […] The eluent was injected into the UPLC-HDMS system consisting of an online ACQUITY UPLC (Waters BEH C18 column, 130 Å, 1.7 μm, 2.1 mm×150 mm) coupled to a SYNAPT G2-S HDMS instrument equipped with an ESI source (capillary voltage was set to 3.2 kV, the cone voltage to 30 V and the source temperature to 120° C.). MS peak areas of the peptide were determined by integration for the quantification (Qu et al., 2013, supra). The unbound fraction of the peptide in plasma (% free) was calculated from the ratio of the buffer side response to the plasma side response. The bound fraction of the compound was calculated as follows: % bound=100−% free.

The conditions of data set [5]: compared with parent peptide.
For data set [6], the target named is T1, C3b (Homo sapiens, UniProt P01024).
T1 construct: a two-chain molecule consisting of a β chain (residues 1 to about 645) and an α-chain (residues 650-1,641)
Put plainly: SPR single-cycle kinetic analysis of compstatin analogs on immobilized C3b. The conditions noted are these: C3b surface 3000-5000 RU, 25° C., PBS-T, 1:1 binding model. As to the method: Individual injections within a cycle were 2 min long with a 5-min dissociation between injections. After the end of the last injection, a 40-min dissociation time was allowed. […] Each assay was performed at least twice.

The target in data set [7] is C3 (Homo sapiens, UniProt P01024). The conditions noted are these: versus earlier compstatin analogs, backbone N-methylation; cited from earlier work.
For data set [8] the following is noted: NHP; cited from earlier work.
For data set [9] the following is noted: in human; cited from earlier work.
The target in data set [10] is human serum albumin (Homo sapiens, UniProt P02768). The conditions noted are these: cited from earlier work.
[11] abbreviates: C3-depleted serum with 5 μM purified C3, 24 h, read-out: C3-positive serum % bound.
Setting [12] is: C3-depleted serum, 24 h, read-out: C3-depleted serum % bound (converted).
Where [13] appears, read: C3-depleted serum with 5 μM purified C3, 24 h, read-out: C3-positive serum % bound (converted).

T1 sequence (P01024 23-667 limits assumed): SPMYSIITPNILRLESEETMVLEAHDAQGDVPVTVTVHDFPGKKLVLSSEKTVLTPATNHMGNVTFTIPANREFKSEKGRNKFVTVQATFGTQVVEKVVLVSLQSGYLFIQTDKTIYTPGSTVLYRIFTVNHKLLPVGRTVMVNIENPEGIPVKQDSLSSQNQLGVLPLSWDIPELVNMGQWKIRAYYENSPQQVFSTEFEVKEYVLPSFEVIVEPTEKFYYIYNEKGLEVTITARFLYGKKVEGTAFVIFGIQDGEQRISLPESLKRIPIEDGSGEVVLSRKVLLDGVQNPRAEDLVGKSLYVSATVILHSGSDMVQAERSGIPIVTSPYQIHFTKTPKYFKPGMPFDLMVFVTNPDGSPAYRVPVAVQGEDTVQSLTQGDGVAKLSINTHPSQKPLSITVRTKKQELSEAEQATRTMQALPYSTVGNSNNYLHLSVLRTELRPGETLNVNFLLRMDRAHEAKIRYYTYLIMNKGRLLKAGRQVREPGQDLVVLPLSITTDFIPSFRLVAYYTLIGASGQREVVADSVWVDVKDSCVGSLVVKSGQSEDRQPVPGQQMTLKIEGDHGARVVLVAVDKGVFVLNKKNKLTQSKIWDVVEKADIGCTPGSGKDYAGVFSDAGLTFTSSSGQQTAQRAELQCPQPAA
T1 sequence (P01024 749-1663 partner limits assumed): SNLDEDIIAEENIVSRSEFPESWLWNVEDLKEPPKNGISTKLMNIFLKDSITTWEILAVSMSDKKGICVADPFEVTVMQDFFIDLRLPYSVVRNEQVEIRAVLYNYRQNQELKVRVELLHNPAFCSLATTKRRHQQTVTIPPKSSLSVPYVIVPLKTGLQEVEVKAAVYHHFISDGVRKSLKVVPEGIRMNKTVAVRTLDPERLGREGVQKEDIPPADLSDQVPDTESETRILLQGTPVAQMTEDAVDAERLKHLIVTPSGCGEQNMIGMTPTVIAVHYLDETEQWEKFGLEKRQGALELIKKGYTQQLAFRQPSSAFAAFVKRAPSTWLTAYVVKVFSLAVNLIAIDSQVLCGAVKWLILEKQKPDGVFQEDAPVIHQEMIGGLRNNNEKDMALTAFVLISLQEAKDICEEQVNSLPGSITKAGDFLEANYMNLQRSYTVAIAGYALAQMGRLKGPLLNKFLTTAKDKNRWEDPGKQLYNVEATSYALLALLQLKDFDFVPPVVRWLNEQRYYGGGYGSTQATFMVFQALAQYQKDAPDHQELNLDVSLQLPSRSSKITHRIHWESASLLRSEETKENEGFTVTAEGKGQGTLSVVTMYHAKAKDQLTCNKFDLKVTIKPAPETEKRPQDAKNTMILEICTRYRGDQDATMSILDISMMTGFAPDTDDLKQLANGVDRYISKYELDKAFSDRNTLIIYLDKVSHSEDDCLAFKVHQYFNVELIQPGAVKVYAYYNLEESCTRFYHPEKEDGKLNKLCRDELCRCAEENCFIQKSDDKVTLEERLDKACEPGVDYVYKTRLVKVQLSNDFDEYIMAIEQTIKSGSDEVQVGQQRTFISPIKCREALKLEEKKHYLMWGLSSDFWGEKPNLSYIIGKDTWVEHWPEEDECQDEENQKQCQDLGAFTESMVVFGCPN
Sequence of C3 (P01024 23-1663): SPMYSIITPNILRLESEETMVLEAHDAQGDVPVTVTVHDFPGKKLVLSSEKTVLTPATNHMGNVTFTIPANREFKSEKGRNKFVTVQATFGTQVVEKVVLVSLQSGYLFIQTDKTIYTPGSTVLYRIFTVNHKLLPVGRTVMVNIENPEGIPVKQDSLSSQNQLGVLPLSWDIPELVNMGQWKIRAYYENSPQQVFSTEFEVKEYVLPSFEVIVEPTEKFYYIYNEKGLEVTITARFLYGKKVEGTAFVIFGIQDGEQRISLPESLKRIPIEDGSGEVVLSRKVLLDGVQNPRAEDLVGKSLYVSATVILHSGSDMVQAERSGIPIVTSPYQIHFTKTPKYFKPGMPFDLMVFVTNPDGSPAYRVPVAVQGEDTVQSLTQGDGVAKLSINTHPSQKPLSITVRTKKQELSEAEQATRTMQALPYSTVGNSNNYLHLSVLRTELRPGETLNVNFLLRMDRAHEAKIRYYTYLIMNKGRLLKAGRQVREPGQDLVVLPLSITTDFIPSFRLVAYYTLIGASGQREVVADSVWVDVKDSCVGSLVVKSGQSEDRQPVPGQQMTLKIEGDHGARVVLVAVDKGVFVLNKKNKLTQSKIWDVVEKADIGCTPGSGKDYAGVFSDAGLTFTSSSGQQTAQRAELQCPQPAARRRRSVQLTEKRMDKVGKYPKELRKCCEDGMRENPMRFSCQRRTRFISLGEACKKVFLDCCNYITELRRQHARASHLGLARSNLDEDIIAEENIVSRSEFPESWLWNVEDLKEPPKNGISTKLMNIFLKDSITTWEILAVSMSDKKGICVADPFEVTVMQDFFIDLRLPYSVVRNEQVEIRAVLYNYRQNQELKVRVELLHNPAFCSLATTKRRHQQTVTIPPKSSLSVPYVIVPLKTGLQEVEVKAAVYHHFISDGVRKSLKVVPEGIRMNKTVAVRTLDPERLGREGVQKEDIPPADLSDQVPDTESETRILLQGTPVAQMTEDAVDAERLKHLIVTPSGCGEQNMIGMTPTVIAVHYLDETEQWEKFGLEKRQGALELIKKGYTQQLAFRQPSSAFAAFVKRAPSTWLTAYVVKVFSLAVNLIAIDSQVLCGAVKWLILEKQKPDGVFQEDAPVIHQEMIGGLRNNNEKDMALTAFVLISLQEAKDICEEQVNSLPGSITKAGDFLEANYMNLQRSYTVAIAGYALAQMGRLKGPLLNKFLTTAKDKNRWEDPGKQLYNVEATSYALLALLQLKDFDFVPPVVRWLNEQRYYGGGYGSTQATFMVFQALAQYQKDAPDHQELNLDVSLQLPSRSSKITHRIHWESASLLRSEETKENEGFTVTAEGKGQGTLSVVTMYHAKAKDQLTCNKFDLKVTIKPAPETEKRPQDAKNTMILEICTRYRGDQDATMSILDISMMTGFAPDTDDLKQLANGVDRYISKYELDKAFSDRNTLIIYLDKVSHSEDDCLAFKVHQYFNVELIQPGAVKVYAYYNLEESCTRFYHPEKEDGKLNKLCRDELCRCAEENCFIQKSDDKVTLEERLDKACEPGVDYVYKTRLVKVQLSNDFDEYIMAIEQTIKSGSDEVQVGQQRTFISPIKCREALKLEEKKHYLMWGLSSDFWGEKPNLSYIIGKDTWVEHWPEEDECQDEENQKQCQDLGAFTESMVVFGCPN
Sequence of human serum albumin (P02768 25-609): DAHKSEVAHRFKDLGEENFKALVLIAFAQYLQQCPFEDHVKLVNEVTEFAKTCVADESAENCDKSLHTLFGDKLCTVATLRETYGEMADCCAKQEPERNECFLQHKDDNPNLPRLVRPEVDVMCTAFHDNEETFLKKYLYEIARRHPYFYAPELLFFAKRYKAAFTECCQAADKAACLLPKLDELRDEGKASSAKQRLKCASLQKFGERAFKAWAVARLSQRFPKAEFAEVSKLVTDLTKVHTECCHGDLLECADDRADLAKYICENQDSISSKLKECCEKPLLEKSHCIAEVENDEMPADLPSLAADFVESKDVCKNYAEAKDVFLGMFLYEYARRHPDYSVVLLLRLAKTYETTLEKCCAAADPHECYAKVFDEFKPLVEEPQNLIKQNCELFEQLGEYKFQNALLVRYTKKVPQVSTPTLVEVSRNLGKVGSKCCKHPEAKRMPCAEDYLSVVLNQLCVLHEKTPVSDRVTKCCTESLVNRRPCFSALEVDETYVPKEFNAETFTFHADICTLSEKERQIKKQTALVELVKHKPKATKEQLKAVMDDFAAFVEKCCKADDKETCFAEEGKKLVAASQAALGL
Sequence of human serum albumin (HSA) (P02768 25-609): as above

Molecule `CC[C@H](C)[C@H](NC(=O)CCCCCOP(=O)(O)OC1CCC(c2ccccc2)(c2ccccc2)CC1)C(=O)N[C@H]1CSSC[C@@H](C(=O)N(C)[C@H](C(N)=O)[C@@H](C)CC)NC(=O)[C@H](CCCNC(=N)N)NC(=O)[C@H](Cc2c[nH]cn2)NC(=O)[C@H](C)NC(=O)CN(C)C(=O)[C@H](Cc2c[nH]c3ccccc23)NC(=O)[C@H](CC(=O)O)NC(=O)[C@H](CCC(N)=O)NC(=O)[C@H](Cc2cn(C)c3ccccc23)NC(=O)[C@H](C(C)C)NC1=O` [ABM2-Cp20, ABM2-Ile-[Cys-Val-Trp(Me)-Gln-Asp-Trp-Sar-Ala-His-Arg-Cys]-mIle-NH2] showed an IC50 in data set [1] of 170 ± 110 nM. Moreover, the Kd in data set [2] stood at 106000 ± 3000 nM. For the same molecule, in [3], the albumin binding site result is recorded as “binds primarily to site II”. Besides, the fraction unbound at 24 h, 5 μM in data set [4] (setting [11]) and in data set [4] (setting [12]) was under 0.01 each time. Moreover, the fraction unbound at 24 h, 10 μM in [4] (setting [13]) and in data set [4] (setting [12]) was under 0.01 in each case. The solubility result in [5] is given as “lower solubility”.
For the molecule `CC[C@H](C)[C@H](NC(=O)[C@@H](Cc1ccc(O)cc1)NC(=O)CCCCCOP(=O)(O)OC1CCC(c2ccccc2)(c2ccccc2)CC1)C(=O)N[C@H]1CSSC[C@@H](C(=O)N(C)[C@H](C(N)=O)[C@@H](C)CC)NC(=O)[C@H](CCCNC(=N)N)NC(=O)[C@H](Cc2c[nH]cn2)NC(=O)[C@H](C)NC(=O)CN(C)C(=O)[C@H](Cc2c[nH]c3ccccc23)NC(=O)[C@H](CC(=O)O)NC(=O)[C@H](CCC(N)=O)NC(=O)[C@H](Cc2cn(C)c3ccccc23)NC(=O)[C@H](C(C)C)NC1=O` [ABM2-Cp40], the kd in data set [6] is recorded as 0.5 ± 0.2 10^−3 s^−1. This molecule registered a half-maximal inhibitory concentration (IC50) in data set [1] of 80 ± 30 nM.
Consider `CC[C@H](C)[C@H](NC(C)=O)C(=O)N[C@H]1CSSC[C@@H](C(=O)N(C)[C@H](C(N)=O)[C@@H](C)CC)NC(=O)[C@H](CCCNC(=N)N)NC(=O)[C@H](Cc2c[nH]cn2)NC(=O)[C@H](C)NC(=O)CN(C)C(=O)[C@H](Cc2c[nH]c3ccccc23)NC(=O)[C@H](CC(=O)O)NC(=O)[C@H](CCC(N)=O)NC(=O)[C@H](Cc2cn(C)c3ccccc23)NC(=O)[C@H](C(C)C)NC1=O` [Cp20, Ac-Ile-[Cys-Val-Trp(Me)-Gln-Asp-Trp-Sar-Ala-His-Arg-Cys]-mIle-NH2, reference compound], for which the kd in data set [6] was 6.7 ± 2.9 10^−3 s^−1. In addition, the kon in data set [6] (read-out: ka) was 2.3e+06 ± 700000 M⁻¹ s⁻¹. The half-maximal inhibitory concentration (IC50) in data set [1] was 260 ± 120 nM. The values for the fraction unbound at 24 h, 5 μM in data set [4] (setting [11]) and in [4] (setting [12]) were under 0.01 and 0.93, respectively. Further, the fraction unbound at 24 h, 10 μM in data set [4] (setting [13]) is 0.16; in data set [4] (setting [12]) it was 0.97. Further, in data set [7], the improved affinity was 10 fold. Moreover, the half-life in [8] is listed as 9 h.
Consider `CC[C@H](C)[C@H](NC(=O)[C@H](N)Cc1ccc(O)cc1)C(=O)N[C@H]1CSSC[C@@H](C(=O)N(C)[C@H](C(N)=O)[C@@H](C)CC)NC(=O)[C@H](CCCNC(=N)N)NC(=O)[C@H](Cc2c[nH]cn2)NC(=O)[C@H](C)NC(=O)CN(C)C(=O)[C@H](Cc2c[nH]c3ccccc23)NC(=O)[C@H](CC(=O)O)NC(=O)[C@H](CCC(N)=O)NC(=O)[C@H](Cc2cn(C)c3ccccc23)NC(=O)[C@H](C(C)C)NC1=O` [Cp40, (D)Tyr-Ile-[Cys-Val-Trp(Me)-Gln-Asp-Trp-Sar-Ala-His-Arg-Cys]-mIle-NH2, reference compound], for which, in data set [6], the kd was 1.3 ± 0.2 10^−3 s^−1. In data set [8], the half-life is reported as 12 h.
As to `O=C([O-])CN(CCN(CC(=O)[O-])CC(COP(=O)([O-])OC1CCC(c2ccccc2)(c2ccccc2)CC1)N(CC(=O)[O-])CC(=O)[O-])CC(=O)[O-].[Gd+3].[Na+].[Na+].[Na+]` (centres unmarked) [MS-325, gadofosveset trisodium], the intravascular half-life in [9] is 18.5 ± 3 h. Also, the Kd in [10] is 164000 nM.
